Patent publication US11512090B2, “Muscarinic acetylcholine M1 receptor antagonists” (PIPELINE THERAPEUTICS, INC., priority 2018, dated 2022)
Read-outs that look alike come from different tables or passages of the source.

How the values were obtained:
Assay type in all cases: cell-based
human M1 receptor = biological target: T1, human M1 receptor (Homo sapiens, UniProt P11229); assay: In vitro functional assay of muscarinic acetylcholine receptor activity (aequorin calcium flux, antagonist mode vs EC80 acetylcholine), M1
T1 sequence (P11229 1-460): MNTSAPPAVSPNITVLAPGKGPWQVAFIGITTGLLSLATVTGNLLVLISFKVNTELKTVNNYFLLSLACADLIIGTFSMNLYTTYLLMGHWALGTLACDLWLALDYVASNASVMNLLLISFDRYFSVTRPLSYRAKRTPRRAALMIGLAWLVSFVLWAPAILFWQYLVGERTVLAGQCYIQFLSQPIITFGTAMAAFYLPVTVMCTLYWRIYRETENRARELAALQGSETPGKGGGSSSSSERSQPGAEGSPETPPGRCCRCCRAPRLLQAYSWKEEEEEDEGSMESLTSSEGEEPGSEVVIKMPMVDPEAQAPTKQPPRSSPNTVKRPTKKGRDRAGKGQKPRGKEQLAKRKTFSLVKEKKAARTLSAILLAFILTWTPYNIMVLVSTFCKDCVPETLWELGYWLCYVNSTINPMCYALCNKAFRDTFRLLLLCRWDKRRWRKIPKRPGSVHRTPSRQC
Procedure, shortened: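 Antagonism at M1 was measured as a concentration-dependent reduction of the EC80 acetylcholine-evoked aequorin luminescence, from which IC50 was derived. Human M1 CHO-K1 aequorin cells were first loaded with 5 uM coelenterazine h for 4 h and exposed to compound for 30 min at room temperature.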

M2 = biological target: T2, M2 (Homo sapiens, UniProt P08172); assay: In vitro functional assay of muscarinic acetylcholine receptor activity, M2
T2 sequence (P08172 1-466): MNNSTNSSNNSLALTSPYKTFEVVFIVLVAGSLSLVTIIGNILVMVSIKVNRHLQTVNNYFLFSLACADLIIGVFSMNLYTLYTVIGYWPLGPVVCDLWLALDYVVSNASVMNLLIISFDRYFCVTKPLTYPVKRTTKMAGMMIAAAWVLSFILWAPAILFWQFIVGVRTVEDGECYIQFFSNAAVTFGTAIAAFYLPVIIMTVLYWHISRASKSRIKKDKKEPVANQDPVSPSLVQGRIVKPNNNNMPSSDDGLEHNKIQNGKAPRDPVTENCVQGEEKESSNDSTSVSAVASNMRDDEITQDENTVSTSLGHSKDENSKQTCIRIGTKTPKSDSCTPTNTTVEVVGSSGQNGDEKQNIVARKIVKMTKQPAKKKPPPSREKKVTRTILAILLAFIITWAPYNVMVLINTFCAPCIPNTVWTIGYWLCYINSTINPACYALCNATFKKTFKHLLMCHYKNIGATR

M3 = M3 (Homo sapiens, UniProt P20309); assay: In vitro functional assay of muscarinic acetylcholine receptor activity, M3; conditions: antagonist IC50 at M3; read-out: M3 IC50
M3, sequence (P20309 whole entry): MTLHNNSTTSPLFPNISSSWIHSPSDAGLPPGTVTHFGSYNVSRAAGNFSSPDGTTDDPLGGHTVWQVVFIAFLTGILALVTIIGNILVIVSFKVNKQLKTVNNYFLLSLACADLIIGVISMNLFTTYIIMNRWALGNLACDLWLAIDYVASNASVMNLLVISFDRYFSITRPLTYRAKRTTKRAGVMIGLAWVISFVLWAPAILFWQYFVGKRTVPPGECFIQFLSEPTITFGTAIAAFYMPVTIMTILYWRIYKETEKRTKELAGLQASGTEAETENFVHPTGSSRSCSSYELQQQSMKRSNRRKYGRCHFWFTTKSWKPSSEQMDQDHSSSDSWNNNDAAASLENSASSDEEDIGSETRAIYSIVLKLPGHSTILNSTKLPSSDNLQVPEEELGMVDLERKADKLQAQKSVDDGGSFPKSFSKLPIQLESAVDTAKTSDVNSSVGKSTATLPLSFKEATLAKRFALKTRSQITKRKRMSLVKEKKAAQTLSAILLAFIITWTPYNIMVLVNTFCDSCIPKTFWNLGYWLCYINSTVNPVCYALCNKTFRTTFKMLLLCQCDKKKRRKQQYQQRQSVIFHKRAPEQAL

[1] = antagonist IC50 at M2, read-out: M2 IC50
[2] = CHO-K1 cells stably expressing human M1 receptor with Aequorin, decrease in EC80 acetylcholine response, read-out: M1 IC50

IC50 (M2; [1]) [nM] | IC50 (M3) [nM] | IC50 (human M1 receptor; [2]) [nM] | SMILES | IC50 (human M1 receptor) [nM] | IC50 (M2) [nM]
100 to 1000 | 1000 to 10000 | < 100 | Cc1cc(F)cnc1N1CCN(C(=O)CCCc2cccc3ncccc23)CC1 [Example 55, 1-(4-(5-fluoro-3-methylpyridin-2-yl)piperazin-1-yl)-4-(quinolin-5-yl)butan-1-one] |  | 
100 to 1000 | 1000 to 10000 | 100 to 1000 | CC1CN(c2ccncc2)CCN1C(=O)CCCc1cccc2ncccc12 (stereo not drawn) [Example 56, 1-(2-methyl-4-(pyridin-4-yl)piperazin-1-yl)-4-(quinolin-5-yl)butan-1-one] |  | 
1000 to 10000 | 1000 to 10000 | 100 to 1000 | O=C(CCCc1cccc2ncccc12)N1CC2CC1CN2c1ccncc1 (stereo not drawn) [Example 57, 1-(5-(pyridin-4-yl)-2,5-diazabicyclo[2.2.1]heptan-2-yl)-4-(quinolin-5-yl)butan-1-one] |  | 
100 to 1000 | 1000 to 10000 | < 100 | CC1CN(C(=O)CCCc2cccc3ncccc23)CCN1c1ccncc1 (stereo not drawn) [Example 60, 1-(3-methyl-4-(pyridin-4-yl)piperazin-1-yl)-4-(quinolin-5-yl)butan-1-one] |  | 
> 10000 | 1000 to 10000 | 100 to 1000 | O=C(CCCc1cccc2ncccc12)N1CCN(c2ccncc2F)CC1 [Example 67, 1-(4-(3-fluoropyridin-4-yl)piperazin-1-yl)-4-(quinolin-5-yl)butan-1-one] |  | 
> 10000 | 1000 to 10000 | 1000 to 10000 | N#Cc1cnccc1N1CCN(C(=O)CCCc2cccc3ncccc23)CC1 [Example 68, 4-(4-(4-(quinolin-5-yl)butanoyl)piperazin-1-yl)nicotinonitrile] |  | 
> 10000 | 1000 to 10000 | 100 to 1000 | COc1cc(N2CCN(C(=O)CCCc3cccc4ncccc34)CC2)ccn1 [Example 69, 1-(4-(2-methoxypyridin-4-yl)piperazin-1-yl)-4-(quinolin-5-yl)butan-1-one] |  | 
100 to 1000 | 1000 to 10000 | < 100 | N#Cc1cc(N2CCN(C(=O)CCCc3cccc4ncccc34)CC2)ccn1 [Example 70, 4-(4-(4-(quinolin-5-yl)butanoyl)piperazin-1-yl)picolinonitrile] |  | 
1000 to 10000 | > 10000 | 100 to 1000 | Cc1nc2cccc(CCCC(=O)N3CCN(c4ccncc4F)CC3)c2o1 [Example 73, 1-(4-(3-fluoropyridin-4-yl)piperazin-1-yl)-4-(2-methylbenzo[d]oxazol-7-yl)butan-1-one] |  | 
> 10000 | > 10000 | 1000 to 10000 | COc1cnc2cccc(CCCC(=O)N3CCN(c4ccncc4F)CC3)c2c1 [Example 74, 1-(4-(3-fluoropyridin-4-yl)piperazin-1-yl)-4-(3-methoxyquinolin-5-yl)butan-1-one] |  | 
1000 to 10000 | 1000 to 10000 | < 100 | C[C@@H]1CN(c2ccncc2Cl)CCN1C(=O)CCCc1cccc2ncccc12 [Example 77, (R)-1-(4-(3-chloropyridin-4-yl)-2-methylpiperazin-1-yl)-4-(quinolin-5-yl)butan-1-one] |  | 
1000 to 10000 | 1000 to 10000 | < 100 | Cc1ccncc1N1CCN(C(=O)CCCc2cccc3ncccc23)[C@H](C)C1 [Example 78, (R)-1-(2-methyl-4-(4-methylpyridin-3-yl)piperazin-1-yl)-4-(quinolin-5-yl)butan-1-one] |  | 
< 100 | 100 to 1000 | < 100 | Cc1cc(Cl)cnc1N1CCN(C(=O)CCCc2cccc3ncccc23)[C@H](C)C1 [Example 79, (R)-1-(4-(5-chloro-3-methylpyridin-2-yl)-2-methylpiperazin-1-yl)-4-(quinolin-5-yl)butan-1-one] |  | 
100 to 1000 | 1000 to 10000 | < 100 | Cc1cc(F)cnc1N1CCN(C(=O)CCCc2cccc3ncsc23)[C@@H](C)C1 [Example 81, (S)-4-(benzo[d]thiazol-7-yl)-1-(4-(5-fluoro-3-methylpyridin-2-yl)-2-methylpiperazin-1-yl)butan-1-one] |  | 
1000 to 10000 | 1000 to 10000 | < 100 | Cc1cc(F)cnc1N1CCN(C(=O)CCCc2cccc3ncncc23)[C@@H](C)C1 [Example 82, (S)-1-(4-(5-fluoro-3-methylpyridin-2-yl)-2-methylpiperazin-1-yl)-4-(quinazolin-5-yl)butan-1-one] |  | 
> 10000 | > 10000 | 1000 to 10000 | Cc1cc(F)cnc1N1CCN(C(=O)CCCc2cccc3nccn23)[C@@H](C)C1 [Example 84, (S)-1-(4-(5-fluoro-3-methylpyridin-2-yl)-2-methylpiperazin-1-yl)-4-(imidazo[1,2-a]pyridin-5-yl)butan-1-one] |  | 

SMILES | IC50 (M2; [1]) [nM] | IC50 (M3) [nM] | IC50 (human M1 receptor; [2]) [nM] | IC50 (human M1 receptor) [nM] | IC50 (M2) [nM]
O=C(CCOCc1cccc2cnccc12)N1C[C@H]2CC[C@@H](C1)N2c1ccc(F)cn1 [Example 49, 1-((1R,5S)-8-(5-fluoropyridin-2-yl)-3,8-diazabicyclo[3.2.1]octan-3-yl)-3-(isoquinolin-5-ylmethoxy)propan-1-one] | 1000 to 10000 | > 10000 |  | 100 to 1000 | 
O=C(N1CC(Oc2cccc3ncccc23)C1)N1C[C@H]2CC[C@@H](C1)N2c1ccc(F)cn1 [Example 50, ((1R,5S)-8-(5-fluoropyridin-2-yl)-3,8-diazabicyclo[3.2.1]octan-3-yl)(3-(quinolin-5-yloxy)azetidin-1-yl)methanone] | 1000 to 10000 | > 10000 | 1000 to 10000 |  | 
Cc1cc(F)cnc1N1[C@@H]2CC[C@H]1CN(C(=O)CCCc1cccc3ncccc13)C2 [Example 52, 1-((1R,5S)-8-(5-fluoro-3-methylpyridin-2-yl)-3,8-diazabicyclo[3.2.1]octan-3-yl)-4-(quinolin-5-yl)butan-1-one] |  | 1000 to 10000 |  | 100 to 1000 | 100 to 1000
O=C([C@H]1C[C@H](Oc2cccc3ncsc23)C1)N1CC2CCC(C1)N2c1ccc(F)cn1 [Example 63, ((1r,3R)-3-(benzo[d]thiazol-7-yloxy)cyclobutyl)((1R,5S)-8-(5-fluoropyridin-2-yl)-3,8-diazabicyclo[3.2.1]octan-3-yl)methanone] |  | > 10000 | 1000 to 10000 |  | 100 to 1000
O=C([C@H]1C[C@H](Oc2cccc3ncsc23)C1)N1CC2CCC(C1)N2c1ncc(Cl)cn1 [Example 64, ((1r,3R)-3-(benzo[d]thiazol-7-yloxy)cyclobutyl)((1R,5S)-8-(5-chloropyrimidin-2-yl)-3,8-diazabicyclo[3.2.1]octan-3-yl)methanone] | 1000 to 10000 | 1000 to 10000 | > 10000 |  | 
Cc1cc(N2C3CCC2CN(C(=O)[C@H]2C[C@H](Oc4cccc5ncsc45)C2)C3)ccn1 [Example 65, ((1r,3R)-3-(benzo[d]thiazol-7-yloxy)cyclobutyl)((1R,5S)-8-(2-methylpyridin-4-yl)-3,8-diazabicyclo[3.2.1]octan-3-yl)methanone] | 1000 to 10000 | > 10000 | 1000 to 10000 |  | 
COc1cnc2cccc(CNCC(=O)N3C[C@H]4CC[C@@H](C3)N4c3ccncc3F)c2c1 [Example 71, 1-((1R,5S)-8-(3-fluoropyridin-4-yl)-3,8-diazabicyclo[3.2.1]octan-3-yl)-2-(((3-methoxyquinolin-5-yl)methyl)amino)ethan-1-one] |  | 1000 to 10000 |  | 100 to 1000 | 100 to 1000
Cc1nc2cccc(CNCC(=O)N3C[C@H]4CC[C@@H](C3)N4c3ccncc3F)c2o1 [Example 72, 1-((1R,5S)-8-(3-fluoropyridin-4-yl)-3,8-diazabicyclo[3.2.1]octan-3-yl)-2-(((2-methylbenzo[d]oxazol-7-yl)methyl)amino)ethan-1-one] | 1000 to 10000 | > 10000 |  | 100 to 1000 | 
O=C(COCc1cccc2nccn12)N1C[C@H]2CC[C@@H](C1)N2c1ccncc1F [Example 75, 1-((1R,5S)-8-(3-fluoropyridin-4-yl)-3,8-diazabicyclo[3.2.1]octan-3-yl)-2-(imidazol[1,2-a]pyridin-5-ylmethoxy)ethan-1-one] | 1000 to 10000 | > 10000 | 1000 to 10000 |  | 
COc1cnc2cccc(COCCC(=O)N3C[C@H]4CC[C@@H](C3)N4c3ccncc3F)c2c1 [Example 76, 1-((1R,5S)-8-(3-fluoropyridin-4-yl)-3,8-diazabicyclo[3.2.1]octan-3-yl)-3-((3-methoxyquinolin-5-yl)methoxy)propan-1-one] | 1000 to 10000 | 1000 to 10000 |  | < 100 | 
